Entries after “also recorded” stand apart in the source; their conditions may differ. Oligonucleotides are written 5' to 3', each unit as a sugar letter and its base; * is a phosphorothioate linkage, no mark a phosphodiester; rarer units and linkages stand in square brackets, end groups in braces. Plain capitals give the bases only. [aminoLNA-N] = amino locked nucleic acid nucleoside (N: the base); l = locked nucleic acid (LNA); d = 2'-deoxy (DNA)

The text below walks through data of patent US10030042B2, “Synthesis of bicyclic nucleosides” (MiRagen Therapeutics, Inc., priority 2014, dated 2018).

The subject of data set [1] is mature human miR-208a (22 nucleotide RNA complement). Description: Duplex melting temperature (Tm) of anti-208a oligonucleotides annealed to complementary RNA. Format: binding. As to conditions: for Tm: RNA complement; for ΔTm, DNA: difference to fully DNA phosphodiester 10931. The procedure: The melting temperature (Tm) of modified 16 nucleotide phosphodiester strands were determined and compared to the Tm of identical 16 nucleotide sequences having natural phosphodiester DNA nucleotides. Specifically, the relative aminoCBBN melting temperature (Tm) compared to the 2′-deoxynucleoside or oxoCBBN nucleoside with the same nucleobase was determined on a per incorporation basis by determining the difference between the melting temperature of the amino-modified 16 nucleotide length phosphodiester strand and that of the identical 16 nucleotide sequence utilizing either the 2′-deoxynucleoside or oxoCBBN phosphodiester DNA nucleotide. Tm differences of substitutions were compared only when they were placed in the same position of the sequence.
For example, the modified anti-208a oligonucleotides were annealed to the complementary sequence, twenty-two nucleotides in length, comprised of RNA nucleosides and a phosphate backbone. The complementary sequence was identical to the endogenous mature miRNA. Thermal denaturation temperatures (Tm) were measured as a maximum of the first derivative plot of melting curvex (A260 vs. Temp). The duplexes were constituted at 1 μM in a 0.9% NaCl buffer. Temperature was ramped from 25° C. to 95° C. at 1° C./min and OD's at 260 nm were read once per 30 seconds. Tm values are averages of at least two measurements.
Duplex melting temperatures for various modifications of a 16 nucleotide sequence, complementary to a nucleotide sequence of mature human miR-208a were measured using a Varian Cary 1E UV-Vis Spectrophotometer. Anti-miRNA 208a oligonucleotide sequences tested included a fully DNA phosphodiester (compound M-10931 (SEQ ID NO:9)), four DNA phosphodiester oligonucleotides with 1, 2 or 3 aminoCBBN thymidine residues in place of dT residues (compounds M-11915 (SEQ ID NO: 1), M-11916 (SEQ ID NO:2), M-11917 (SEQ ID NO:3), and M-11918 (SEQ ID NO:4)), mixed 9 LNA/7 DNA phosphorothioate oligonucleotide (compound M-10101 (SEQ ID NO:10)), and 2 mixed LNA/DNA/aminoCBBN phosphorothioate oligonucleotides where LNA thymidines of the parent compound, compound M-10101 (SEQ ID NO: 10), were replaced with either 1 or 2 aminoCBBN residues (compounds M-11920 (SEQ ID NO:6) and M-11919 (SEQ ID NO:5)). Duplexes were constituted at 1 μM in 0.9% NaCl. Temperature was ramped from 25° C. to 95° C. at 1° C./min and OD's at 260 nm were read once per 30 seconds.

In another data set the test system is RNA Complement. The following applies: Table 3, cited from earlier work; for Tm: DNA 9mer, phosphate backbone, RNA complement, literature values.
A further data set deals with miR-208a. The experiment in a line: Dual-luciferase reporter assay in HeLa cells stably expressing miR-208a. As to conditions: FIG. 4; renilla/firefly luminescence, 24 hours after transfection, in words. Format: cell-based, human. As to the method: A HeLa cell line stably expressing miR-208a was generated. Specifically, a miRNA expression vector (Cell BioLabs, Inc.) expressing miR-208a was transfected into HeLa cells. Cells were then selected using a puromycin selection screen and clones which had detectable miR-208a expression as measured by qPCR were isolated (Ct value=˜30).
The cells were plated in a black-walled 96 well plate with 10,000 cells per well. After twenty-four hours following plating, the cells were transfected with a dual-luciferase plasmid containing the miR-208a binding site in the 3′ UTR of the renilla gene and various miR-208a inhibitors (compounds M-11919 (SEQ ID NO:5), M-11920 (SEQ ID NO:6), and M-10101 (SEQ ID NO:10)). Compound M-10591 was a non-targeting control. The cells were incubated for 24 hours at 37° C. and then both firefly (as a transfection normalization) and renilla levels were measured by luminescence using the Dual-Luciferase Reporter Assay System (Promega). Data was normalized to cells treated with only the miR-208a dual luciferase plasmid (psi check 208a).
For orientation: A reporter such as luciferase makes a cellular process visible.

[2] abbreviates: Table 3, PS backbone 10101-like.
The mark [3] stands for this setting: Table 1, phosphate backbone, duplex 1 μM in 0.9% NaCl.
Setting [4] is: Table 3, PS backbone, versus parent 10101.

“ICs; dTs; dTs; dTs; ITs; ITs; dGs; ICs; dTs; ICs; IGs; dTs; ICs; dTs; ITs; IA [Compound M-10101, reference compound]”: the Tm in data set [1] (setting [2]) came out at 86.7 °C.

As to “bC.bT.bT.bT.bT.bT.dG.bC.bT.bC. dG.bT.bC.bT.bT.dA [Compound M-10924]”, the “ΔTm, DNA” value in data set [1] (Table 1) was 36.7 °C. In addition, the ΔTm/mod in data set [1] (Table 1, per modification, versus DNA) came to 2.8 °C/modification. Moreover, in data set [1] (setting [3]), the Tm was determined as 89.8 °C.

On to “dC; dT; dT; dT; dT; dT; dG; dC; dT; dC; dG; dT; dC; dT; dT; dA (DNA CTTTTTGCTCGTCTTA; unmodified DNA) [Compound M-10931, reference compound]”, for which the “ΔTm, DNA” value in data set [1] (Table 1) came out at 0 °C. Further, the Tm in data set [1] (setting [3]) came out at 53.1 °C.

Turning to “dG; IT; dG; dA; IT; dA; IT; dG; dC (DNA dGlTdGdAlTdAlTdGdC) [DNA_9mer_PO_3LNA-T, literature DNA 9mer phosphodiester with three LNA-T]”, in the data set with RNA Complement, the Tm is 50 °C.

Regarding “dG; aIT; dG; dA; aIT; dA; aIT; dG; dC (DNA dG[aminoLNA-T]dGdA[aminoLNA-T]dA[aminoLNA-T]dGdC) [DNA_9mer_PO_3aminoLNA-T, literature DNA 9mer phosphodiester with three aminoLNA-T]”, the Tm in the data set on RNA Complement was 47 °C. Further, in the data set with RNA Complement (aminoLNA 9mer versus LNA 9mer), the “ΔTm, parent” value is −1 °C and the ΔTm/mod was −1 °C/modification.

Turning to “lCs.dTs.dTs.dTs.abTs.abTs.dGs. lCs.dTs.lCs.lGs.dTs.lCs.dTs.lTs.lA [Compound M-11919]”, the Tm in data set [1] (setting [2]) came to 80.04 °C. Besides, in data set [1] (setting [4]), the “ΔTm, parent” value is −6.66 °C and the ΔTm/mod was −6.66 °C/modification. Moreover, the miR-208a inhibition activity entry in the data set on miR-208a is on record as “comparable activity as compound M-10101; also recorded: retains all activity of the optimized M-10101”.

In the case of “lCs.dTs.dTs.dTs.lTs.lTs.dGs.lCs. dTs.lCs.lGs.dTs.lCs.dTs.abTs.lA [Compound M-11920]”, the Tm in data set [1] (setting [2]) stood at 85.125 °C. Besides, in data set [1] (setting [4]), the “ΔTm, parent” value was −1.575 °C and the ΔTm/mod was −0.7875 °C/modification. Besides, the “Affinity for the miR-208a RNA (Tm data, in words)” value in data set [1] (comparison of M-11920 with M-11919) was “less affinity for the miR-208a RNA than the M-11919”. For the same substance, the miR-208a inhibition activity entry with miR-208a is reported as “slightly less activity compared to the other two inhibitors”.
